Measurements published in patent US7314726B2, “Beta secretase exosite binding peptides and methods for identifying beta secretase modulators” (Bristol-Myers Squibb Company, priority 2002, dated 2008).
Blank lines part the entries; values can stand above or below the molecule they belong to. Alexa488 = Alexa Fluor 488 fluorescent label

What was measured:
BACE [1] = target: T1, BACE (Homo sapiens, UniProt P56817); experiment: Phage ELISA of phage-displayed peptides on immobilised BACE; format: binding; design: The cDNA for the catalytic domain of human BACE (residues 1-460) was PCR-amplified; human IgG1 heavy chain (C, cleaved yes); thrombin cleavage site (C); made in house; host or cells: CHO DG44 cells (stably transfected, secreted); settings: clones from solid phase panning at pH 7.0
Experimental: Two highly selected and homologous 12 mer phage peptides bound BACE specifically and reproducibly in phage-ELISA tests. Bristol-Myers Squibb fUSE5-based C4C, C6C, 5- and 15 mer libraries, and M13-based C7C libraries, and 7- and 12 mer libraries obtained from New England Biolabs, Beverly, Mass. were panned for three cycles against BACE (produced as described herein in Example 3). BACE was immobilized by coating at 0.5 μg/well in 4 wells of Dynex Immulon 4HBX plates overnight at 4° C. in 0.1M NaHCO3 buffer, pH 9.0. Panning was by standard procedures at room temperature that involved blocking wells with 2% BSA in PBS and elution with 0.1M HCL, pH 2.2. The vector NTI alignment tool and visual inspection of sequences were employed to analyze the selected peptides.
After sequencing approximately 20-50 clones from each library after three cycles of selection, we prepared essentially all possible candidate clones (39 clones in total) for phage-ELISA to obtain direct evidence for affinity to BACE. […] We therefore sequenced additional 12 mer clones to try to find additional candidate clones. […] This […] (SEQ ID NO:20) peptide is homologous to […] (SEQ ID NO:19) and consistent with the specific binding of both those peptides to BACE. The […] (SEQ ID NO:20) peptide and […] (SEQ ID NO:19) peptides were the two most efficiently recovered clones with 13 and 9 copies, respectively. […]

BACE [2] = target: T1, BACE; experiment: Competitive binding assay, displacement of labeled EBP from BACE, fluorescence anisotropy; design: The cDNA for the catalytic domain of human BACE (residues 1-460) was PCR-amplified; human IgG1 heavy chain (C, cleaved yes); thrombin cleavage site (C); made in house; host or cells: CHO DG44 cells (stably transfected, secreted)
Experimental: The competitive binding assay was carried out at pH 7.1 (PBS buffer) or pH 4.5 (50 mM acetate buffer). The fluorescence anisotropy was measured at 25° C. in an AVIV fluorometer. The excitation and emission wavelengths were set to 495 and 519 nm, respectively. The excitation and emission slit widths were 4 and 10 nm, respectively.
The initial anisotropy value was measured. A concentrated unlabeled peptide or compound stock was titrated into the above solution of EBP and BACE. The final concentration of unlabeled peptide or compound ranges from 20 to 20000 nM. After each addition, the solution was mixed for 10 times with a pipettor. The fluorescence anisotropy was averaged over a 5 minute period.
The change in anisotropy was converted to fractional occupancy based on the r0 and rb obtained from the binding assay. The fractional occupancy was then plotted against the concentration of the competing peptide or compound. (see, for example, FIG. 6) The Kd of the competing ligand was calculated from curve fitting using the program […]™ (Synergy Software, Reading, Pa.). The equation used to fit the competition data is identical to equation 4 in Lai et al., (2000) Arch. Biochem. Biophys. 381:278-284.
The truncated unlabeled peptides were screened at a single concentration of 10 μM at pH 4.5. The anisotropy values detected with Molecule X in the absence of inhibitor, i.e., truncated unlabeled peptide (ra) and in the presence of the inhibitor (rb) and the labeled peptide alone (r0) were used to calculate the percent of inhibition: 100 (ra-rb)/(ra-r0). The percent of inhibition was compared among the truncated peptides.

[3] = target: T2, catalytic domain of human BACE expressed in a CHO cell line (Homo sapiens, UniProt P56817); experiment: Fluorescently labeled EBP binding to BACE, fluorescence anisotropy; settings: pH 4.5 (50 mM acetate), 25° C., 1:1 binding model; read-out: binding constant (Kd) of labeled EBP
T2 construct: The cDNA for the catalytic domain of human BACE (residues 1-460) was PCR-amplified; human IgG1 heavy chain (C, cleaved yes); thrombin cleavage site (C); made in house; host or cells: CHO DG44 cells (stably transfected, secreted)
Experimental: An assay to evaluate the binding of BACE to EBPs labeled with a fluorescent molecule (for example, but not limited to Alexa488) was developed. This assay uses the catalytic domain of human BACE expressed in a CHO cell line (according to Example 3) and labeled EBPs such as Molecule X shown in FIG. 4. The change in fluorescent anisotropy of the EBP peptide upon binding to BACE is monitored.
Peptides were dissolved in 100% DMSO (dimethyl sulfoxide) at 10 mM concentration, and then diluted 10-fold into deionized water. The concentration of the labeled peptides was determined by their absorbance at 495 nm (ε=71000 cm^−1M^−1). The concentration of selected unlabeled peptides was determined by their Tyr absorbance at 276 nm (ε=1390 cm^−1M^−1 per Tyr residue).
The binding was carried out at pH 7.1 (PBS buffer) and pH 4.5 (50 mM acetate buffer) in the presence of 1% DMSO. Fluorescence anisotropy was measured at 25° C. in an AVIV fluorometer. The excitation and emission wavelengths were set to 495 and 519 nm, respectively. The excitation and emission slit width were 4 and 10 nm, respectively. A concentrated BACE stock was used to titrate a 300 μl solution of 10 nM labeled EBP. The final BACE concentration ranges from 10 to 5000 nM. After the addition of BACE, the solution was mixed for 10 times with a pipettor. The fluorescence anisotropy was averaged over a 5 minute period.
The change in anisotropy was plotted against the BACE concentration (see, for example, FIG. 5). The Kd of the labeled EBP as well as the initial (r0) and final anisotropy (rb) of the labeled EBP were calculated from curve fitting using the program Kaleidagraph. The equation used to fit the binding data is identical to equation 1 in Lai et al., (2000) Arch. Biochem. Biophys. 381:278-284.

BACE [4] = target: T1, BACE; experiment: Isothermal titration calorimetry (ITC) of BACE and peptides; format: binding; design: The cDNA for the catalytic domain of human BACE (residues 1-460) was PCR-amplified; human IgG1 heavy chain (C, cleaved yes); thrombin cleavage site (C); made in house; host or cells: CHO DG44 cells (stably transfected, secreted); settings: 25° C.
Experimental: Isothermal titration calorimetry was performed to determine quantitatively the binding affinities of BMS-561877 and BMS-561871 for β-secretase. Recombinant human BACE was expressed as a fusion protein with human IgG1, in Chinese hamster ovary (CHO) cells (Vassar et al., (1999) Science 286:735-741 and Haniu et al., (2000) J. Biol. Chem. 275:21099-21106).
This construct, referred to as BACE-T-IgG, also contained a protease cleavage site between BACE and IgG1, sensitive to human α-thrombin. The cDNA for the catalytic domain of human BACE (residues 1-460) was PCR-amplified and subcloned into the mammalian expression vector pTV1.6, upstream of a thrombin cleavage site linked to cDNA encoding human IgG1 heavy chain. The vector construct, pTV1.6-BACE-T-IgG, was used to produce stably transfected DHFR-deficient CHO DG44 cells, which were then scaled up using methotrexate for selection.
The clarified growth media harvested from CHO DG44 cells which contained the fusion protein was loaded onto a rProtein A SEPHAROSE™ column (5×20 cm, Amersham Pharmacia Biotech) using a peristaltic pump at 4° C., at 4 mL/min. The column was washed with Dulbecco's PBS, pH 7.1, 4 mL/min, until baseline absorbance at 280 nm was observed. BACE-T-IgG was eluted from the resin with 0.10 M citrate, pH 3.0, into tubes containing 0.5 volumes of 4 M Tris, pH 8. Fractions containing the fusion protein were dialyzed extensively using 12,000-14,000 […] MWCO membrane (UltraPURE, GIBCO BRL) against PBS, pH 7.1, at 4° C. The protein was sterile filtered (0.22 μm) and stored at 4° C.
To generate BACE for binding experiments, the fusion protein BACE-T-IgG was treated with human α-thrombin (Enzyme Research Labs, South Bend, Ind.) at a ratio of 1:500 (mass:mass) in Dulbecco's PBS, pH 7.1, at 37° C. for 2 hr. Human α-thrombin was removed by passing the sample over Benzamidine SEPHAROSE™ 6B column (Amersham Pharmacia Biotech). The cleaved IgG1 was captured by passing the solution over a rProtein A SEPHAROSE™ (Amersham Pharmacia Biotech) column, whereas the BACE passed through this column. The protein sample was further purified by concentrating to 10-15 mg/mL using a centrifugation concentration unit (Millipore Ultrafree 10 kDa MWCO, 15 mL unit) and loading onto a SUPERDEX™ 200 PC 3.2/30 gel-filtration column (Amersham Pharmacia Biotech). The column was run at 3 mL/min with Dulbecco's PBS, pH 7.1, at room temperature. Fractions containing BACE were combined, sterile filtered (0.22 μm) and stored at 4° C.
BACE was prepared for isothermal titrating calorimetry by extensive dialysis against fresh buffer at 4° C. using 12,000-14,000 […] MWCO dialysis membrane (UltraPURE, GIBCO BRL). […] Following 2 buffer changes, the protein was removed from the membrane and centrifuged (5 min×4000 g, 4° C.) to remove particulates. The protein was stored at 4° C. until needed for the calorimetry experiments. The protein concentration was determined by 10-fold dilution into the same buffer, and measuring the UV absorbance at 280 nm in a 1.00 cm pathlength cell (calculated value=1.22 AU=1.00 mg/mL protein, based on mean glycosylated molecular weight=53.5 kDa, and given amino acid composition). Final concentrations used in isothermal titrating calorimetry were typically 5.0 μM, containing a final concentration of 0.5% v/v DMSO.
Peptides were dissolved in the buffer dialysate from protein dialysis, and equal volumes of DMSO were added to each (0.5% v/v DMSO). The pH values of the solutions were adjusted as necessary to equal that of the buffer dialysate and protein sample within 0.01 pH units.

T1 sequence (P56817 46-460 limits assumed): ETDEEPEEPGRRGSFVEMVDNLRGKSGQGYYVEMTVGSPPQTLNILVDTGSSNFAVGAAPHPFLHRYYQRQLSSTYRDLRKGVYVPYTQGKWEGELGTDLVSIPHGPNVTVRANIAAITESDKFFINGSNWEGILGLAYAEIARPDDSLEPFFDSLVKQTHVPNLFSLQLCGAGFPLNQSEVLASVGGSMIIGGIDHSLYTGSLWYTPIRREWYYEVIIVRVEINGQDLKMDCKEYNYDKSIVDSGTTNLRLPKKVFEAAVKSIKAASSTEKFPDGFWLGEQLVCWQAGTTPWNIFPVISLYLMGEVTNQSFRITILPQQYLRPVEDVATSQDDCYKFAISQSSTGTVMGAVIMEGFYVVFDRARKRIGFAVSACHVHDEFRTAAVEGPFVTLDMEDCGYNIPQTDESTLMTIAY
T2 sequence (P56817 46-460 limits assumed): as above

Molecule: Molecule Y2: analog of Molecule Y1 with different length of linker between Alexa488 and the peptide (Ac-YPYFIPL-Alexa488; also: linker between peptide and Alexa488 not given here)
Kd [3]: 92 nM

Molecule: Molecule Y4: analog of Molecule Y1 with different length of linker between Alexa488 and the peptide (Ac-YPYFIPL-Alexa488; also: linker between peptide and Alexa488 not given here)
Kd [3]: 62 nM

Further lines, results first:

phage ELISA binding to BACE (BACE [1]): specific binding to BACE
Molecule: Ac-ALYPYFLPISAK-NH2 [BMS-561877]

Kd (BACE [2]; pH 4.5, displacement of Molecule Y1, read-out: Kd of unlabeled EBP by competition): 1200 nM
Molecule: CC[C@H](C)[C@H](NC(=O)[C@H](Cc1ccccc1)NC(=O)[C@H](Cc1ccc(O)cc1)NC(=O)[C@@H]1CCCN1C(=O)[C@H](Cc1ccc(O)cc1)NC(C)=O)C(=O)N1CCC[C@H]1C(=O)N[C@@H](CC(C)C)C(N)=O [BMS-593925, Tyr-Pro-Tyr-Phe-Ile-Pro-Leu]

KA (BACE [4]; 50 mM NaOAc, pH 4.5): 610000 M⁻¹
Kd (BACE [4]; 50 mM NaOAc, pH 4.5): 1640 nM
TΔS (BACE [4]; 50 mM NaOAc, pH 4.5): -5.46 kcal/mol
ΔG (BACE [4]; 50 mM NaOAc, pH 4.5): -7.90 kcal/mol
ΔH (BACE [4]; 50 mM NaOAc, pH 4.5): -13.35 kcal/mol
KA (BACE [4]; Dulbecco's PBS, pH 7.0): 1.09e+06 M⁻¹
Kd (BACE [4]; Dulbecco's PBS, pH 7.0): 914 nM
TΔS (BACE [4]; Dulbecco's PBS, pH 7.0): -9.81 kcal/mol
ΔG (BACE [4]; Dulbecco's PBS, pH 7.0): -8.23 kcal/mol
ΔH (BACE [4]; Dulbecco's PBS, pH 7.0): -18.04 kcal/mol
Molecule: Ac-HWPFFIRS-NH2 [BMS-655507]

binding to BACE (BACE [2]; scrambled peptide): does not bind to BACE
Molecule: LYPPYIF (Ac-LYPPYIF-NH2) [BMS-599271, scrambled peptide containing the same amino acids as BMS-593925]
